Test results: ChEMBL document CHEMBL3593175, “Bicyclic [3.3.0]-Octahydrocyclopenta[c]pyrrolo Antagonists of Retinol Binding Protein 4: Potential Treatment of Atrophic Age-Related Macular Degeneration and Stargardt Disease” (J Med Chem, 2015)

What was measured:
[1] = molecular target: T1, Retinol-binding protein 4 (Homo sapiens, UniProt P02753); assay: Displacement of [3H]-retinol from RBP4 (unknown origin) by scintillation proximity assay
[2] = molecular target: T1, Retinol-binding protein 4; assay: Inhibition of retinol-induced interaction of bacterially expressed MBP-tagged RBP4 (unknown origin) with Eu3+ cryptate labeled TTR by HTRF assay
[3] = Metabolic stability in human liver microsomes assessed as compound remaining at 10 uM after 30 mins; type: ADME; settings: read-out: Stability
[4] = Metabolic stability in rat liver microsomes assessed as compound remaining at 10 uM after 30 mins; type: ADME; settings: read-out: Stability

SMILES | IC50 [1] [nM] | IC50 [2] [nM] | remaining at 0.5 h, 10 µM [3] [%] | remaining at 0.5 h, 10 µM [4] [%]
O=C(O)c1cncc(N2C[C@H]3C[C@@H](c4ccccc4C(F)(F)F)C[C@H]3C2)c1 | > 3000 |  |  | 
Cc1sc(N2C[C@H]3C[C@@H](c4ccccc4C(F)(F)F)C[C@H]3C2)nc1C(=O)O | 29.3 | 495 |  | 
CC(C)c1cc(C(=O)O)nc(N2C[C@H]3C[C@@H](c4ccccc4C(F)(F)F)C[C@H]3C2)n1 | 153 |  |  | 

Now from value to compound:

IC50 [1] [nM] | IC50 [2] [nM] | remaining at 0.5 h, 10 µM [3] [%] | remaining at 0.5 h, 10 µM [4] [%] | SMILES
20.8 |  |  |  | O=C(O)c1ccnc(N2C[C@H]3C[C@@H](c4ccccc4C(F)(F)F)C[C@H]3C2)n1
89.5 | 511 | 18 | 63 | Cc1cc(C(=O)O)nc(N2CCN(c3ccccc3C(F)(F)F)CC2)n1
83.2 | 3960 |  |  | O=C(O)c1cccc(N2C[C@H]3C[C@@H](c4ccccc4C(F)(F)F)C[C@H]3C2)c1
